PMC3934894, “Inhibition of Human and Yeast 20S Proteasome by Analogues of Trypsin Inhibitor SFTI-1” (PLoS ONE, 2014)
Where “and” joins values, the source holds several entries; their conditions need not be identical. Equal values may be shown once. Read-outs that look alike come from different tables or passages of the source. Peptide text beside a SMILES is read from it. * marks the point of attachment. Cbz = O=C(OCc1ccccc1)*

Key:
[1] = molecular target: human 20S proteasome, caspase-like (C-L) activity (Homo sapiens, UniProt P28072); assay: C-L activity of SDS-activated human 20S proteasome (Z-LLE-AMC); conditions: for IC50: C-like Human 20S IC50, SDS-activated human 20S, pH 8.1, 37°C, Z-LLE-AMC 79 µM
Experimental: (§1) An assay buffer was composed of 50 mM Tris-HCl (pH 8.1) and 0.02% (w/v) SDS (exceptionally, T-L activity was measured in Tris buffer without SDS, that may trigger precipitation of substrates containing the guanidino group [21]). […] The SFTI-1 analogues were incubated with 20S proteasome in assay buffer at 37°C for 30 min. Reactions were performed in 96-well black BRAND plates (Germany). The final volume of the solution in each well was 200 µL. […] Proteasomal subsite activities were determined by monitoring the AMC liberation over time with a Fluorostar Omega (BMG Labtech, Germany) using excitation and emission wavelengths of 380 nm and 450 nm, respectively. […] Association constants Ka were measured as described previously [14] and calculated using a two-parameter fit model (using the GraFit software package).

[2] = molecular target: yeast 20S proteasome, chymotrypsin-like (ChT-L) activity (Saccharomyces cerevisiae, UniProt P30656); assay: ChT-L activity of SDS-activated yeast 20S proteasome (Suc-LLVY-AMC)
Experimental: (§2) The peptidase activities of 20S proteasome were assayed using fluorogenic tri- and tetra-peptides coupled at their C-termini with 7-amino-4-methylcoumarin group (AMC). The initial concentration of purified yeast 20S proteasome [E0] […] An assay buffer was composed of 50 mM Tris-HCl (pH 8.1) and 0.02% (w/v) SDS (exceptionally, T-L activity was measured in Tris buffer without SDS, that may trigger precipitation of substrates containing the guanidino group [21]). […] The SFTI-1 analogues were incubated with 20S proteasome in assay buffer at 37°C for 30 min. Reactions were performed in 96-well black BRAND plates (Germany). The final volume of the solution in each well was 200 µL. […] Proteasomal subsite activities were determined by monitoring the AMC liberation over time with a Fluorostar Omega (BMG Labtech, Germany) using excitation and emission wavelengths of 380 nm and 450 nm, respectively.

[3] = molecular target: human 20S proteasome, trypsin-like (T-L) activity (Homo sapiens, UniProt Q99436); assay: T-L activity of latent human 20S proteasome (Z-LLR-AMC, no SDS); conditions: for IC50: T-like Human 20S IC50, latent human 20S, Tris buffer without SDS, pH 8.1, 37°C, Z-LLR-AMC 52 µM
Experimental: as §2

[4] = molecular target: T1, human 20S proteasome, chymotrypsin-like (ChT-L) activity (Homo sapiens, UniProt P28074); assay: biochemical; conditions: for IC50: ChT-like Human 20S IC50, SDS-activated human 20S, [E] 2.7 nM, pH 8.1, 37°C, Suc-LLVY-AMC 52 µM
Experimental: as §1

[5] = system: rat and porcine 20S proteasomes, T-L; set-up: method as in PMID 19054805; conditions: cited from earlier work
[6] = system: rat and porcine 20S proteasomes, ChT-L; set-up: method as in PMID 19054805; conditions: cited from earlier work
porcine 20S C–L activity = system: porcine 20S C–L activity; set-up: method as in PMID 19054805; conditions: cited from earlier work
[7] = molecular target: T1, human 20S proteasome, chymotrypsin-like (ChT-L) activity
Experimental: as §1

[8] = system: rat and porcine 20S proteasomes, C-L site; set-up: method as in PMID 19054805; conditions: cited from earlier work
20S proteasome = system: 20S proteasome; set-up: method as in PMID 10805568; conditions: ChT-L, T-L and C-L; cited from earlier work
[9] = ChT-like Yeast 20S IC50, SDS-activated yeast 20S, [E] 0.9 nM, pH 8.1, 37°C, 30 min incubation, Suc-LLVY-AMC 5.2 µM

| IC50 [2] [µM] | Molecule | IC50 [1] | IC50 [2, 9] | IC50 [3] [µM] | Ki [4] [µM] | IC50 [4] | also measured |
| --- | --- | --- | --- | --- | --- | --- | --- |
| – | CC[C@H](C)[C@@H]1NC(=O)[C@@H]2CCCN2C(=O)[C@H]([C@@H](C)CC)NC(=O)[C@H](CCCNC(=N)N)NC(=O)[C@H](CO)NC(=O)[C@H](CCCCN)NC(=O)[C@H]([C@@H](C)O)NC(=O)[C@@H](NC(=O)[C@H](CCCNC(=N)N)NC(=O)CN)CSSC[C@@H](C(=O)N[C@@H](Cc2ccccc2)C(=O)N2CCC[C@H]2C(=O)N[C@@H](CC(=O)O)C(=O)O)NC1=O [Analogue IV] (HELM PEPTIDE1{G.R.C.T.K.S.R.I.P.I.C.F.P.D}$PEPTIDE1,PEPTIDE1,3:R3-11:R3$$$V2.0) | 2.44 µM | 5.36 µM | 60.5 | 1.31 | 2.49 µM | – |
| – | bovine pancreatic trypsin inhibitor [BPTI] | – | – | – | – | – | IC50 [5]: 0.79 µM; effect on C-L activity at concentrations lower than 1 µM ([1]; SDS-activated human 20S): reduced the C-L activity significantly; maximal inhibition of C-L activity ([1]; SDS-activated human 20S, even at 12 µM, data not shown): ≤ 80%; IC50 [6]: 0.42 µM; Ki ([6]; competitive, read-out: inhibition constant Ki, ChT-L): 2 µM; inhibition of porcine 20S C–L activity at 2 µM (porcine 20S C–L activity): 86%; inhibition of ChT-L activity at 4 µM ([7]; SDS-activated human 20S, 4 µM inhibitor): 60%; inhibition of the ChT-L site at ten-fold higher concentration ([7]; SDS-activated human 20S, ten-fold higher than 4 µM, data not shown): 80%; reduction of T-L activity at around 40 µM ([3]; latent human 20S, around 40 µM): 60%; IC50 [8]: 0.53 µM |
| – | C/C=C\NC(=O)[C@H]1NC(=O)[C@H](CC(N)=O)NC(=O)[C@@H](NC(=O)C(=O)[C@@H](C)CC)Cc2ccc(O)c(c2)-c2cccc3c2NC(=O)[C@@]3(O)[C@H]1O [TMC-95C] | – | – | – | – | – | times weaker than TMC-95A (20S proteasome): 20–150 times |
| 8.82 | CC[C@H](C)[C@@H]1NC(=O)[C@@H]2CCCN2C(=O)[C@H](CCCCN)NC(=O)[C@H](CCCCN)NC(=O)[C@H](CO)NC(=O)[C@H](C)NC(=O)[C@H]([C@@H](C)O)NC(=O)[C@@H](NC(=O)[C@H](CCCNC(=N)N)NC(=O)CN)CSSC[C@@H](C(=O)N[C@@H](Cc2ccccc2)C(=O)N2CCC[C@H]2C(=O)N[C@@H](CC(=O)O)C(=O)O)NC1=O [Analogue VIII] (HELM PEPTIDE1{G.R.C.T.A.S.K.K.P.I.C.F.P.D}$PEPTIDE1,PEPTIDE1,3:R3-11:R3$$$V2.0) | 5.37 µM | – | > 100 | 2.99 | 5.8 µM | – |
| – | CC[C@H](C)[C@@H]1NC(=O)[C@@H]2CCCN2C(=O)[C@@H]2CCCN2C(=O)[C@H]([C@@H](C)CC)NC(=O)[C@H](CO)NC(=O)[C@H](CCCCN)NC(=O)[C@H]([C@@H](C)O)NC(=O)[C@@H](NC(=O)[C@H](CCCNC(=N)N)NC(=O)CN)CSSC[C@@H](C(=O)N[C@@H](Cc2ccccc2)C(=O)N2CCC[C@H]2C(=O)N[C@@H](CC(=O)O)C(=O)O)NC1=O [Analogue I] | 58.2 µM | 52 µM | > 100 | 27 | 51.6 µM | – |
| 6.6 | CC[C@H](C)[C@@H]1NC(=O)[C@@H]2CCCN2C(=O)[C@H](CCCCN)NC(=O)[C@H](CCCCN)NC(=O)[C@H](CO)NC(=O)[C@H](Cc2ccc(O)cc2)NC(=O)[C@H]([C@@H](C)O)NC(=O)[C@@H](NC(=O)[C@H](CCCNC(=N)N)NC(=O)CN)CSSC[C@@H](C(=O)N[C@@H](Cc2ccccc2)C(=O)N2CCC[C@H]2C(=O)N[C@@H](CC(=O)O)C(=O)O)NC1=O [Analogue VI] (HELM PEPTIDE1{G.R.C.T.Y.S.K.K.P.I.C.F.P.D}$PEPTIDE1,PEPTIDE1,3:R3-11:R3$$$V2.0) | 4.02 µM | – | 93.1 | 1.43 | – | – |
| – | CC[C@H](C)[C@@H]1NC(=O)[C@@H]2CCCN2C(=O)[C@H](CCCCN)NC(=O)[C@H](CCCCN)NC(=O)[C@H](CO)NC(=O)[C@H](CCCCN)NC(=O)[C@H]([C@@H](C)O)NC(=O)[C@@H](NC(=O)[C@H](CCCNC(=N)N)NC(=O)CN)CSSC[C@@H](C(=O)N[C@@H](Cc2ccccc2)C(=O)N2CCC[C@H]2C(=O)N[C@@H](CC(=O)O)C(=O)O)NC1=O [Analogue X] (HELM PEPTIDE1{G.R.C.T.K.S.K.K.P.I.C.F.P.D}$PEPTIDE1,PEPTIDE1,3:R3-11:R3$$$V2.0) | 1.12 µM | ~16.7 µM and 16.7 µM | 86.7 | 0.66 | ~1.28 µM and 1.28 µM | – |
| – | CC[C@H](C)[C@@H]1NC(=O)[C@@H]2CCCN2C(=O)[C@H](C)NC(=O)[C@H](C)NC(=O)[C@H](CO)NC(=O)[C@H](CCCCN)NC(=O)[C@H]([C@@H](C)O)NC(=O)[C@@H](NC(=O)[C@H](CCCNC(=N)N)NC(=O)CN)CSSC[C@@H](C(=O)N[C@@H](Cc2ccccc2)C(=O)N2CCC[C@H]2C(=O)N[C@@H](CC(=O)O)C(=O)O)NC1=O [Analogue IX] (HELM PEPTIDE1{G.R.C.T.K.S.A.A.P.I.C.F.P.D}$PEPTIDE1,PEPTIDE1,3:R3-11:R3$$$V2.0) | > 100 µM | > 100 µM | 62.1 | – | > 100 µM | remaining activity at 100 µM ([2]; read-out: ChT-L activity remaining at about 100 µM): ≥ 70% |
| 1.23 | CC[C@H](C)[C@@H]1NC(=O)[C@@H]2CCCN2C(=O)[C@H](CCCCN)NC(=O)[C@H](CCCCN)NC(=O)[C@H](CO)NC(=O)[C@H](CCCNC(=N)N)NC(=O)[C@H]([C@@H](C)O)NC(=O)[C@@H](NC(=O)[C@H](CCCNC(=N)N)NC(=O)CN)CSSC[C@@H](C(=O)N[C@@H](Cc2ccccc2)C(=O)N2CCC[C@H]2C(=O)N[C@@H](CC(=O)O)C(=O)O)NC1=O [Analogue V] (HELM PEPTIDE1{G.R.C.T.R.S.K.K.P.I.C.F.P.D}$PEPTIDE1,PEPTIDE1,3:R3-11:R3$$$V2.0) | 0.6 µM and 0.61 µM | – | 72.2 | 0.31 | 0.9 µM and 0.94 µM | times lower Ka than Z-LLL-CHO ([7]; human 20S ChT-L): about 6.5 times; Kd [4]: 1 µM |
| – | C/C=C\NC(=O)[C@H]1NC(=O)[C@H](CC(N)=O)NC(=O)[C@@H](NC(=O)C(=O)[C@H](C)CC)Cc2ccc(O)c(c2)-c2cccc3c2NC(=O)[C@@]3(O)[C@H]1O [TMC-95D] | – | – | – | – | – | times weaker than TMC-95A (20S proteasome): 20–150 times |
| 1.07 | CC[C@H](C)[C@@H]1NC(=O)[C@@H]2CCCN2C(=O)[C@H](CCCCN)NC(=O)[C@H](CC(C)C)NC(=O)[C@H](CO)NC(=O)[C@H](CCCNC(=N)N)NC(=O)[C@H]([C@@H](C)O)NC(=O)[C@@H](NC(=O)[C@H](CCCNC(=N)N)NC(=O)CN)CSSC[C@@H](C(=O)N[C@@H](Cc2ccccc2)C(=O)N2CCC[C@H]2C(=O)N[C@@H](CC(=O)O)C(=O)O)NC1=O [Analogue III] (HELM PEPTIDE1{G.R.C.T.R.S.L.K.P.I.C.F.P.D}$PEPTIDE1,PEPTIDE1,3:R3-11:R3$$$V2.0) | 2.42 µM | – | > 100 | 1.76 | 3.36 µM | – |
| – | C/C=C\NC(=O)[C@H]1NC(=O)[C@H](CC(N)=O)NC(=O)[C@@H](NC(=O)C(=O)[C@H](C)CC)Cc2ccc(O)c(c2)-c2cccc3c2NC(=O)[C@@]3(O)[C@@H]1O [TMC-95B] | – | – | – | – | – | reduction of 20S activities compared with TMC-95A (20S proteasome): to the same extent as TMC-95A |
| – | CC[C@H](C)[C@H](NC(=O)[C@H]([C@@H](C)CC)N(C)C(C)=O)C(=O)N[C@H](C(=O)N[C@@H](CC(C)C)C(=O)[C@@]1(C)CO1)[C@@H](C)O [epoxomicin] | – | – | – | – | – | IC50 [5]: 0.32 µM; IC50 [6]: 0.14 µM; IC50 [8]: 3.6 µM |
| – | CC[C@H](C)[C@@H]1NC(=O)[C@@H]2CCCN2C(=O)[C@H](CCCCN)NC(=O)[C@H](CC(C)C)NC(=O)[C@H](CO)NC(=O)[C@H](CCCCN)NC(=O)[C@H]([C@@H](C)O)NC(=O)[C@@H](NC(=O)[C@H](CCCNC(=N)N)NC(=O)CN)CSSC[C@@H](C(=O)N[C@@H](Cc2ccccc2)C(=O)N2CCC[C@H]2C(=O)N[C@@H](CC(=O)O)C(=O)O)NC1=O [Analogue II] (HELM PEPTIDE1{G.R.C.T.K.S.L.K.P.I.C.F.P.D}$PEPTIDE1,PEPTIDE1,3:R3-11:R3$$$V2.0) | 6.74 µM | 2.15 µM | > 100 | 1.23 | 2.66 µM | – |

| Molecule | IC50 [2] [µM] | IC50 [1] | IC50 [2, 9] | IC50 [3] [µM] | Ki [4] [µM] | IC50 [4] | also measured |
| --- | --- | --- | --- | --- | --- | --- | --- |
| CC(C)C[C@@H](C=O)NC(=O)[C@H](CC(C)C)NC(=O)[C@H](CC(C)C)NC(=O)OCc1ccccc1 [Z-LLL-CHO, reference compound] (Cbz-Leu-Leu-Leu-aldehyde) | 0.26 | 5.62 µM | – | 48.2 | – | – | IC50 [5]: 2.3 µM; IC50 [6]: 0.78 µM; inhibition of ChT-L activity at 4 µM [7]: completely abolished; ChT-like Human 20S Ka×10^5 ([7]; pH 8.1): 65.4; IC50 [8]: 1.7 µM |
| CC[C@H](C)[C@@H]1NC(=O)[C@@H]2CCCN2C(=O)[C@H](CCCCN)NC(=O)[C@H](CCCCN)NC(=O)[C@H](CO)NC(=O)[C@H](Cc2ccccc2)NC(=O)[C@H]([C@@H](C)O)NC(=O)[C@@H](NC(=O)[C@H](CCCNC(=N)N)NC(=O)CN)CSSC[C@@H](C(=O)N[C@@H](Cc2ccccc2)C(=O)N2CCC[C@H]2C(=O)N[C@@H](CC(=O)O)C(=O)O)NC1=O [Analogue VII] (HELM PEPTIDE1{G.R.C.T.F.S.K.K.P.I.C.F.P.D}$PEPTIDE1,PEPTIDE1,3:R3-11:R3$$$V2.0) | 5.34 | 2.8 µM | – | 45.3 | 1.75 | 3.41 µM | – |
